In US7026505B2, “Method of treating tinnitus” (Warner-Lambert Company, priority 2002, dated 2006):
Where a name gives a salt, the structure may show the parent alone.

Row | melting point | SMILES
1 | 196 to 199 °C | CS(=O)(=O)NCCC1(CN)CCCCC1.Cl
2 | 183 to 185 °C | CC(C)CC(CN)Cc1noc(=S)[nH]1.Cl (stereo not shown)
3 | 210 to 212 °C | Cl.NCC1(Cc2noc(=S)[nH]2)CCCCC1
4 | 160 to 170 °C | CCCC(C(C)C)C(CN)CC(=O)O (stereo not shown) (as salt: HCl)
